Patent US5620676A, “Biologically active ATP analogs” (priority 1995, dated 1997)
Entries after “also recorded” stand apart in the source; their conditions may differ. Read-outs that look alike come from different tables or passages of the source.

Tests used:
[1] = target: T1, P2Y receptor (turkey erythrocyte membranes) (Meleagris gallopavo, UniProt P49652); assay: Stimulation of phospholipase C (inositol phosphate formation) in turkey erythrocyte membranes; assay type: biochemical
T1 construct: from tissue; host or cells: washed turkey erythrocytes, ghosts prepared by hypotonic lysis
In short: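 Erythrocytes were labelled 18-24 h at 37 °C with [3H]myoinositol, and ghosts were made by hypotonic lysis. Ghosts (≈175 μg protein) were incubated 5 min at 30 °C in Hepes buffer pH 7.0 with 1 μM GTPγS and nucleotide analogs. Total [3H]inositol phosphates were purified by anion exchange; K0.5 averaged from 3-8 dose-response curves.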

[2] = system: P2Y receptor (aorta endothelium); assay: Relaxation of noradrenalin-contracted rabbit aorta; conditions: for activity/potency/selectivity in words, aorta: rabbit aorta endothelial P2Y receptor; for relaxation pD2, aorta: rabbit aorta, log molar units
P2X and P2Y receptors = assay: Overall activity in the seven P2X and P2Y preparations
[3] = target: T2, P2X receptor (urinary bladder) (Cavia porcellus, UniProt A0A286XVA9); assay: Contraction of guinea pig isolated urinary bladder detrussor muscle; conditions: guinea pig urinary bladder
T2 construct: guinea pig isolated urinary bladder detrussor muscle; from tissue; host or cells: guinea pig isolated urinary bladder detrusor muscle

[4] = target: T3, P2X receptor (saphenous artery) (Oryctolagus cuniculus, UniProt G1U3D6); assay: Contraction of rabbit saphenous artery; conditions: rabbit saphenous artery
T3 construct: and rabbit saphenous artery; from tissue; host or cells: rabbit saphenous artery
T3 sequence (G1U3D6 1-399): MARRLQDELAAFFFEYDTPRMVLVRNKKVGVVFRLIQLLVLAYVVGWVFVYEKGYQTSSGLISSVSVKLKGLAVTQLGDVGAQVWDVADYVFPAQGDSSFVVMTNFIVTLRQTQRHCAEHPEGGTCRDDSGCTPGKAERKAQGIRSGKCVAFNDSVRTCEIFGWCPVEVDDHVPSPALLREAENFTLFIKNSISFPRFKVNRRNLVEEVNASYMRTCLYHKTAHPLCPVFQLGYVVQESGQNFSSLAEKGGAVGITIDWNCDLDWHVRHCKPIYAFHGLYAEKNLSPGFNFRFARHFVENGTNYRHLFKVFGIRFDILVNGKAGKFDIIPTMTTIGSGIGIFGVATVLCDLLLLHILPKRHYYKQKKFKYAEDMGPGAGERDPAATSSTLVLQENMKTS
Text: (§1) Muscular relaxation/contraction: Relaxant responses mediated via P2Y receptors were examined in guinea pig taenia coli, rabbit aorta, and rabbit mesenteric artery, as described by Hoyle et al. (Br. J. Pharmacol., 107, 367-374 (1992a)), Burnstock et al., (Br. J. Pharmacol., 90, 383-391 (1987a)), and Rubino et al., (Eur. J. Pharmacol., 212, 237-240 (1992)). Contractile responses mediated via P2X receptors were examined in the guinea pig urinary bladder and vas deferens, and rabbit saphenous artery, also using standard methods (see Hoyle et al., supra., 1992; Hoyle et al., Br. J. Pharmacol., 99, 617-621 (1990); and Burnstock et al., Br. J. Pharmacol., 90, 111-120 (1987b)).
^c For the saphenous artery, the percentages in brackets are response
at 10 μM relative to the contraction produced by 1 μM α,MeATP
ATP in this assay is very weak (EC50 =
1.78 mM). The highest concentrations of the analogues tested were 3-30

[5] = target: T4, P2X receptor (vas deferens) (Cavia porcellus, UniProt A0A286XVA9); assay: Contraction of guinea pig isolated vas deferens
T4 sequence (A0A286XVA9 1-399): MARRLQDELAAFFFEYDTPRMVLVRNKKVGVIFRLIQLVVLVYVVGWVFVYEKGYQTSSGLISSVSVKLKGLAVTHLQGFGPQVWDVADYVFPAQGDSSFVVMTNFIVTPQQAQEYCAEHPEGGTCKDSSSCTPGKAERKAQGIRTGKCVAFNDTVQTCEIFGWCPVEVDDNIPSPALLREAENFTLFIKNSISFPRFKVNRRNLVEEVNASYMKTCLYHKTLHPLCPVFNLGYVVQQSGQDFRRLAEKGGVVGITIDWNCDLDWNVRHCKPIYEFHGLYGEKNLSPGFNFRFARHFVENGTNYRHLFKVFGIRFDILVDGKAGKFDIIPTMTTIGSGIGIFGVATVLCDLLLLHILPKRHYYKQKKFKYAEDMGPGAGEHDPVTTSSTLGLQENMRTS
Description: In FIG. 14, the x-axis is also marked in units of the negative log of the molar concentration of applied putative P2Y receptor agonists and the y-axis is marked in units of the percentage relaxation of the 1 μM noradrenalin-induced contraction of rabbit aorta endothelium. In FIGS. 15-16, the x-axis is marked in units of the negative log of the molar concentration of applied putative p^2X receptor agonists and the y-axis is marked in units of the percentage contraction relative to a standard dose of KCl (i.e., 60 mM), as assessed in guinea pig isolated urinary bladder detrussor muscle (FIG. 15) and guinea pig isolated vas deferens (FIG. 16).

[6] = target: T5, P2Y receptor (taenia coli) (Cavia porcellus, UniProt P59902); assay: Relaxation of carbachol-contracted guinea pig taenia coli
T5 construct: Relaxant responses mediated via P2Y receptors were examined in guinea pig taenia coli; from tissue; host or cells: guinea pig taenia coli (carbachol-contracted)
In short: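 Guinea pig taenia coli precontracted with 50 nM carbachol; relaxation to applied P2Y agonists expressed as percentage relaxation against negative log molar agonist concentration.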

[7] = system: P2Y receptor (mesenteric artery); assay: Relaxation of rabbit mesenteric artery
P2Y receptors = assay: Overall activity in P2Y receptor systems
Description: Phospholipase C activity: Stimulation of inositol phosphate formation by compounds of the present invention was measured in turkey erythrocyte membranes as described by Harden et al., supra and Boyer et al., supra. The K0.5 values were averaged from 3-8 independently determined dose-response curves for each compound. Briefly, one ml of washed turkey erythrocytes was incubated in inositol-free medium (DMEM; Gibco) with 0.5-1 mCi of 2-[^3 H]myoinositol (20 Ci/mmol; American Radiolabeled Chemicals Inc., St. Louis, Mo.)for 18-24 h in a humidified atmosphere of 95% air 5% CO2 at 37° C. Erythrocyte ghosts were prepared by rapid lysis in hypotonic buffer (5 mM sodium phosphate, pH 7.4, 5 mM MgCl2, 1 mM EGTA) as described by Boyer et al., supra. Phospholipase C activity was measured in 25 μl of [^3 H]inositol-labeled ghosts (≈175 μg of protein, 200-500,000 cpm/assay) in a medium containing 424 μM CaC12, 0.91 mM MgSO4, 2 mM EGTA, 115 mM KCl, 5 mM KH2 PO4, and 10 mM Hepes, pH 7.0. Assay (100 μl or 200 μl final volume) contained 1 μM GTPγS and the indicated concentrations of nucleotide analogs. Ghosts were incubated at 30° C. for 5 min, and total [^3 H]inositol phosphates were quantitated after purification by anion exchange chromatography according to Harden et al. (supra) and Boyer et al. (supra).
as §1

P2X receptors = assay: Overall activity in P2X receptor systems
[8] = turkey erythrocyte membranes, mean ± S.E.M. for at least 2 determinations, read-out: phosphatidyl inositol metabolism (K0.5, nM) erythrocyte

T1 sequence (P49652 whole entry): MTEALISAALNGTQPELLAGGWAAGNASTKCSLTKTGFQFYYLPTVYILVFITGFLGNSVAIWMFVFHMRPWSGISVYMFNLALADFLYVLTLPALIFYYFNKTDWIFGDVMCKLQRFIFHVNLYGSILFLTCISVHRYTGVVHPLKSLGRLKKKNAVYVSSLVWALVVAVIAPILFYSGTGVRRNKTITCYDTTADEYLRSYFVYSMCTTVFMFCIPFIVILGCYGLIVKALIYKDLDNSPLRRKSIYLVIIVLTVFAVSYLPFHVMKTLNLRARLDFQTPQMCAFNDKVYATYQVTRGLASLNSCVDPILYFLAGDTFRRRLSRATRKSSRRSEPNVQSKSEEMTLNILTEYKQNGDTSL
T5 sequence (P59902 whole entry): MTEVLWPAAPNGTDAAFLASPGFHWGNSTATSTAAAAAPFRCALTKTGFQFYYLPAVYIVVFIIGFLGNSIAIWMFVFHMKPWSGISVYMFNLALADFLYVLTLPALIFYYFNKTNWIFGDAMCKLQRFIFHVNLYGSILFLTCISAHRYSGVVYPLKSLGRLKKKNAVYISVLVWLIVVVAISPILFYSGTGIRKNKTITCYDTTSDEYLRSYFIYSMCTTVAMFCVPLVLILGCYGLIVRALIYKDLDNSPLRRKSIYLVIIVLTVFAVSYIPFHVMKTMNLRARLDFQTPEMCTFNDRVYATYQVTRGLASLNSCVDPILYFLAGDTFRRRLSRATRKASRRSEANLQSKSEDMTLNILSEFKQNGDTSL

CC1(C)O[C@@H]2[C@H](O1)[C@@H](COP(=O)(O)OP(=O)(O)OP(=O)(O)O)O[C@H]2n1cnc2c(N)ncnc21 [2',3'-Isopropylidene-ATP, 2',3'-Isopropylidene adenosine 5'-triphosphate]
EC50 [1, 8]: 201000 nM
activity/potency/selectivity in words, aorta [2]: high selectivity
overall activity in words, all preparations (P2X and P2Y receptors): Neither was particularly active at either P2X or P2Y receptors
activity/potency in words, bladder [3]: limited activity in the urinary bladder
activation at 10 µM ([4]; 10 μM, read-out: response at 10 μM relative to the contraction produced by 1 μM α,MeATP, saph. artery): 7.7%
activity/potency in words, vas deferens [5]: inactive in the vas deferens

Nc1ncnc2c1ncn2[C@@H]1O[C@H](COP(=O)(O)OP(=O)(O)OP(=O)(O)O)[C@@H](N)[C@H]1O [3'-Amino-3'deoxy-ATP, 3'-Amino-3'-deoxyadenosine 5'-triphosphate, reference compound]
EC50 [6]: 3.98 µM
activity/potency in words, taenia coli ([6]; guinea pig taenia coli): almost as potent as ATP in the taenia coli
times more potent than ATP, turkey erythrocyte ([1]; relative to ATP): approximately 15 times
EC50 [1, 8]: 193 nM
relaxation pD2, aorta [2]: 6.4
overall activity in words, all preparations (P2X and P2Y receptors): generally enhanced potency at P2 receptors
activity/potency in words, bladder [3]: more or less as potent as ATP
activity/potency in words, saphenous artery [4]: inactive in the saphenous artery
activity/potency in words, vas deferens [5]: more or less as potent as ATP

Nc1ncnc2c1ncn2[C@@H]1O[C@@H]2COP(=O)(OP(=O)(O)CP(=O)(O)O)O[C@H]2[C@H]1O (stereo partly drawn) [3',5'-Cyclic-β,γ-methylene adenosine 5'-triphosphate]
EC50 ([1]; at 10^-5 M, read-out: phosphatidyl inositol metabolism (K0.5) erythrocyte, class symbol): > 10000 nM
overall activity in words, all preparations (P2X and P2Y receptors; listed as Cyclized β,γ-methylene ATP): without effect in all seven types of preparation tested
overall activity in words, all preparations (P2X and P2Y receptors; listed as β,γ-methylene-adenosine-3',5'-cyclic triphosphate): greatly reduce or abolish activity within most P2X and P2Y preparations

NCCCCCCNc1nc2c(N)ncnc2n1[C@@H]1O[C@H](COP(=O)(O)OP(=O)(O)OP(=O)(O)O)[C@@H](O)[C@H]1O [8-(6-Aminohexylamino)-ATP, 8-(6-aminohexylamino)-ATP, reference compound]
activity/potency in words, turkey erythrocyte ([1]; turkey erythrocyte membranes, listed as 8-(6-Aminohexylamino)ATP): somewhat active in turkey erythrocytes
activity/potency in words, turkey erythrocyte ([1]; turkey erythrocyte membranes, listed as 8-(6-amino-hexylamino)ATP): less potent than ATP at the turkey erythrocyte P2Y receptor
EC50 [1, 8]: 8200 ± 1200 nM
activity/potency in words, mesenteric artery [7]: no activity at the mesenteric artery P2Y receptor
activity/potency/selectivity in words, aorta ([2]; listed as 8-(6-Aminohexylamino)ATP): selective for the endothelial receptors of the rabbit aorta versus the mesenteric artery and taenia coli
activity/potency/selectivity in words, aorta ([2]; listed as 8-(6-amino-hexylamino)ATP): much more potent than ATP
activity/potency/selectivity in words, aorta ([2]; listed as 8-(6-aminohexylamino)ATP): high selectivity
relaxation pD2, aorta [2]: 7.3
overall activity in words, P2Y systems (P2Y receptors): specific for P2Y receptors
overall activity in words, P2X systems (P2X receptors): inactive in the P2X receptor systems

Nc1ncnc2c1ncn2[C@@H]1O[C@H](COP(=O)(O)OP(=O)(O)OP(=O)(O)O)C[C@H]1O [3'-Deoxy-ATP, 3'-deoxy-ATP, reference compound]
EC50 [1, 8]: 75500 nM
overall activity in words, P2Y systems (P2Y receptors): less potent than 2'-deoxy-ATP at P2Y receptors
overall activity in words, all preparations (P2X and P2Y receptors): greatly reduce or abolish activity within most P2X and P2Y preparations
activity/potency in words, bladder [3]: as active as ATP, or nearly so; also recorded: less potent or equal to potency of ATP
activity/potency in words, saphenous artery [4]: no effect
activity/potency in words, vas deferens [5]: as active as ATP, or nearly so; also recorded: equivalent to the effect of ATP

CC1(C)O[C@@H]2[C@H](O1)[C@@H](COP(=O)(O)O)O[C@H]2n1cnc2c(N)ncnc21 [2',3'-Isopropylidene-AMP, 2',3'-Isopropylidene AMP]
EC50 [1, 8]: > 100000 nM
activity/potency/selectivity in words, aorta ([2]; listed as 2',3'-isopropylidene-AMP): a potent agonist at the rabbit endothelial P2Y receptor
activity/potency/selectivity in words, aorta ([2]; listed as Isopropylidene-AMP): specific for the aortic endothelial P2Y receptor
overall activity in words, all preparations (P2X and P2Y receptors): Neither was particularly active at either P2X or P2Y receptors
overall activity in words, P2X systems (P2X receptors): inactive in the P2X receptor systems

O=P(O)(O)OP(=O)(O)OP(=O)(O)OC[C@H]1O[C@@H](n2cnc3c2ncn2ccnc32)[C@H](O)[C@@H]1O [N1,N^6 -etheno-ATP, reference compound]
EC50 [1, 8]: > 100000 nM
overall activity in words, all preparations (P2X and P2Y receptors): greatly reduce or abolish activity within most P2X and P2Y preparations
activity/potency in words, bladder [3]: limited activity in the urinary bladder
activity/potency in words, vas deferens [5]: inactive in the vas deferens

Nc1ncnc2c1ncn2[C@H]1C[C@H](O)[C@@H](COP(=O)(O)OP(=O)(O)OP(=O)(O)O)O1 [2'-Deoxy-ATP, 2'-deoxy-ATP, reference compound]
activity/potency in words, taenia coli ([6]; guinea pig taenia coli): roughly equipotent with ATP in the taenia coli
activity/potency in words, taenia coli ([6]; guinea pig taenia coli, listed as 2'-deoxy-ATP): selectivity
EC50 ([6]; guinea pig taenia coli, log molar units, read-out: relaxation pD2, taenia coli (converted)): 2.51 µM
fold less potent than ATP, turkey erythrocyte ([1]; relative to ATP): 7 -fold
activity/potency in words, turkey erythrocyte ([1]; turkey erythrocyte membranes): seven times less potent than ATP in the turkey erythrocyte
EC50 [1, 8]: 19200 nM
overall activity in words, all preparations (P2X and P2Y receptors): inactive in the five other preparations
overall activity in words, P2X systems (P2X receptors): inactive in the P2X receptor systems
